Data from ChEMBL document CHEMBL1142385, “Nitro as a novel zinc-binding group in the inhibition of carboxypeptidase A” (Bioorg Med Chem, 2008).

Target: T1, Carboxypeptidase A1 (Homo sapiens, UniProt P15085)
T1 sequence (P15085 whole entry): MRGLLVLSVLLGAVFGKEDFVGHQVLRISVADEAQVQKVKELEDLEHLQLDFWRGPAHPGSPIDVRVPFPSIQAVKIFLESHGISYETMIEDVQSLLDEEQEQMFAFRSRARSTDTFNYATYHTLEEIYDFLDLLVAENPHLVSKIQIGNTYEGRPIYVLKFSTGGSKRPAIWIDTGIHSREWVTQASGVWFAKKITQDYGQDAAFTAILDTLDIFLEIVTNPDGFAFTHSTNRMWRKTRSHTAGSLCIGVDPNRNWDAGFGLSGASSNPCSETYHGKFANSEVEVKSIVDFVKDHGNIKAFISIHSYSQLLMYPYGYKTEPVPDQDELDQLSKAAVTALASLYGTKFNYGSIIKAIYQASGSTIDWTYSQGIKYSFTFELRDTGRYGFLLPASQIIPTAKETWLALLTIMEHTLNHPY
Test: Inhibition of CPA

First: O=C(O)C[C@@H](Cc1ccccc1)C(=O)O
Second: O=C(O)[C@@H](Cc1ccccc1)C[N+](=O)[O-]
The Ki of the first is 150-fold lower: 0.45 µM for the first, 68 µM for the second.

First: C=CCC(C[N+](=O)[O-])C(=O)O (racemic)
Second: CC(C)CC(C[N+](=O)[O-])C(=O)O (racemic)
The Ki of the first is 30-fold higher: 62.6 µM for the first, 2.08 µM for the second. The second binds more tightly here.

Work on `O=C(O)C(Cc1ccccc1)C[N+](=O)[O-]` (racemic) yielded a Ki of 0.79 µM.
